Data on 10 molecules can be found in ChEMBL document CHEMBL1909046, “DrugMatrix in vitro pharmacology data”.

The target of data set [1] is T1, C-X-C chemokine receptor type 2 (Homo sapiens, UniProt P25025).
T1 sequence (P25025 whole entry): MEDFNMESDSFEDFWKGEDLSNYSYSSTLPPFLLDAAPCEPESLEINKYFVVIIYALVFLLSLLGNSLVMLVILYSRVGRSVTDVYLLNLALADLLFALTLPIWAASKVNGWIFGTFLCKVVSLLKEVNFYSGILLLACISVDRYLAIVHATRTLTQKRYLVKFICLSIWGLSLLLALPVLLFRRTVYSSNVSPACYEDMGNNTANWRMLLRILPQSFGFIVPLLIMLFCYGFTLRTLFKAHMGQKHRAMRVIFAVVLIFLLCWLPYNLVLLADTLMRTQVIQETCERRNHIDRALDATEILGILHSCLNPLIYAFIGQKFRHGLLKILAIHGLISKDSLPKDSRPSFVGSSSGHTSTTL
Format: cell membranes, Membrane. The settings on record: cho-k1.

In the next data set the target is Melanocortin receptor 5 (Homo sapiens, UniProt P33032). Format: cell membranes, Membrane. Particulars: hek293.
Data set [2] deals with T2, Angiotensin-converting enzyme (Oryctolagus cuniculus, UniProt P12822).
T2 sequence (P12822 whole entry): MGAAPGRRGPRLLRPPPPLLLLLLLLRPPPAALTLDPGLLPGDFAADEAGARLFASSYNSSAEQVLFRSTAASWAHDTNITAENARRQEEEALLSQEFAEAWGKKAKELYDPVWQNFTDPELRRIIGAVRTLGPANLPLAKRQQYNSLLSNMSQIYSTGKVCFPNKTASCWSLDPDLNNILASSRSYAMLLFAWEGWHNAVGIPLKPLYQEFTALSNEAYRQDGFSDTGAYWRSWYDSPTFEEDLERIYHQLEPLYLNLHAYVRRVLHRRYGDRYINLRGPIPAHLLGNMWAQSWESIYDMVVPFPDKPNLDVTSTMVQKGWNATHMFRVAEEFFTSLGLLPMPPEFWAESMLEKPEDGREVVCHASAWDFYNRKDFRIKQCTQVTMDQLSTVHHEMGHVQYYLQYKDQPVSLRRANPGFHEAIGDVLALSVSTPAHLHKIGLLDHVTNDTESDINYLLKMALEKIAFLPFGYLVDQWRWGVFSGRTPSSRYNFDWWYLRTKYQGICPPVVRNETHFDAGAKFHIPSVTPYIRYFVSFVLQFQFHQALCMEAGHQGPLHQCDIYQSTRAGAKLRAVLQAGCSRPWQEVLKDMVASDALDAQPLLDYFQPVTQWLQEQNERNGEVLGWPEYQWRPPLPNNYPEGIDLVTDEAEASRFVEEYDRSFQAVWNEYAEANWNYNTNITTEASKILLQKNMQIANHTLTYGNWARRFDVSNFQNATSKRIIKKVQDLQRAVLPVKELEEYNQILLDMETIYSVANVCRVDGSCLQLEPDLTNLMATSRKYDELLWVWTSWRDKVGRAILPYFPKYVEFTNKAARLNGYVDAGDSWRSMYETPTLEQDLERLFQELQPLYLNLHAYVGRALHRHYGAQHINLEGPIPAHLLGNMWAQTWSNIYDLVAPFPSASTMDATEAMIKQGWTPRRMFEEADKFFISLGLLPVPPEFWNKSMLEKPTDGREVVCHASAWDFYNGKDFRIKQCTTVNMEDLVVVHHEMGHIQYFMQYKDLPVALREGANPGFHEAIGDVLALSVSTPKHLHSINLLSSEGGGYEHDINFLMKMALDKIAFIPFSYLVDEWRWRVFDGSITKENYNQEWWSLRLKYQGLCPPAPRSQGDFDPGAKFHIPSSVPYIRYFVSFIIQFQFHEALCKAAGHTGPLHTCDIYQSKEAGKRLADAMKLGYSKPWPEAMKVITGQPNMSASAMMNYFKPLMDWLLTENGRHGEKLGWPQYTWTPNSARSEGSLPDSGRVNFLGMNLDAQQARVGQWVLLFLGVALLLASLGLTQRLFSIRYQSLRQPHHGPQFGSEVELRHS
Type of data set: tissue-based, Lung.

Another data set addresses T3, Interstitial collagenase (Homo sapiens, UniProt P03956).
T3 sequence (P03956 whole entry): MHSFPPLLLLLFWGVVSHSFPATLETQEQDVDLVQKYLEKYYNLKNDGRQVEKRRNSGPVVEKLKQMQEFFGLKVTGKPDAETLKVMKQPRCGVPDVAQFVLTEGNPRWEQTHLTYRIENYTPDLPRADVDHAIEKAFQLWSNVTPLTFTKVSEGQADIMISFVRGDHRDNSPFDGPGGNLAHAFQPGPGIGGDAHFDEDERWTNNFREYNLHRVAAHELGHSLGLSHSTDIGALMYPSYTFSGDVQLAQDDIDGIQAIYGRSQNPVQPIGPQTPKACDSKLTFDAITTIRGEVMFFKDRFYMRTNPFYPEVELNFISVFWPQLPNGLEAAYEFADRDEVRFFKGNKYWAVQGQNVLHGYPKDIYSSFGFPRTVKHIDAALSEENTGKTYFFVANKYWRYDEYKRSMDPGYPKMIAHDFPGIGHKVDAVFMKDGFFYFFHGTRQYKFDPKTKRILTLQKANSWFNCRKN
Nature of the data set: biochemical. Format: tissue-based, Rheumatoid synovial fibroblasts.

Data set [3] concerns the target Mitogen-activated protein kinase 14 (Homo sapiens, UniProt Q16539). On the set-up: species or system Escherichia coli.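 Also: inhibition of p38alpha enzyme activity in a biochemical kinase assay, with myelin basic protein serving as substrate.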
For data set [4], the target named is Tyrosine-protein kinase Fyn (Homo sapiens, UniProt P06241). Put plainly: biochemical. Format: cell-based, Insect cells. Particulars: insect cells.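 Also: enzymatic inhibition of Fyn kinase activity measured with Poly(Glu:Tyr) as the phosphorylation substrate.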
For the next data set, the target named is T4, Cytochrome P450 2A6 (Homo sapiens, UniProt P11509).
T4 sequence (P11509 whole entry): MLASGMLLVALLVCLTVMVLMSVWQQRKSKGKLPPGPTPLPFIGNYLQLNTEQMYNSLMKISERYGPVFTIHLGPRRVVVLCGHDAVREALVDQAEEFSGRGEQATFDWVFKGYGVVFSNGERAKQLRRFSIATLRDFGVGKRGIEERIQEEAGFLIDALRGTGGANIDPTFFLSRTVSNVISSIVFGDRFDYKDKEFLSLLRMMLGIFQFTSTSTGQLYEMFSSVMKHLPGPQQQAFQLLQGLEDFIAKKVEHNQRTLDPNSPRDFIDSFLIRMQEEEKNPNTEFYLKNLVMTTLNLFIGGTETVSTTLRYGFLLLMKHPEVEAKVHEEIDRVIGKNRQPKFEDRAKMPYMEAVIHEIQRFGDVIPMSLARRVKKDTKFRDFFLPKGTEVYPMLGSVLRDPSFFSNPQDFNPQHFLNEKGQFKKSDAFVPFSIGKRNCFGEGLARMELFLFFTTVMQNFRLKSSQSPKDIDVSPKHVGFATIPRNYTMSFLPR
Particulars: bti-tn-5b1-4.
Also: in other assays of this panel Not Active means under 50% inhibition at 10 µM.

Chain of Mitogen-activated protein kinase 14 (Q16539 whole entry): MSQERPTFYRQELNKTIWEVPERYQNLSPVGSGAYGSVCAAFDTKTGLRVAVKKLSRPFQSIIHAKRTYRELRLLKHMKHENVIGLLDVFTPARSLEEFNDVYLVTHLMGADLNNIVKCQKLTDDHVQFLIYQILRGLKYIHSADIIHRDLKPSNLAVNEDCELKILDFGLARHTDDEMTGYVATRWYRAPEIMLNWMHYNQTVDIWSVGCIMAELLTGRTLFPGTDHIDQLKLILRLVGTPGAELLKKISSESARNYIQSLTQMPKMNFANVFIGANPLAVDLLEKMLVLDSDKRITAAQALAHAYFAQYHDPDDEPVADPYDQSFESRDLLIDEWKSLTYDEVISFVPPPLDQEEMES
Chain of Tyrosine-protein kinase Fyn (P06241 whole entry): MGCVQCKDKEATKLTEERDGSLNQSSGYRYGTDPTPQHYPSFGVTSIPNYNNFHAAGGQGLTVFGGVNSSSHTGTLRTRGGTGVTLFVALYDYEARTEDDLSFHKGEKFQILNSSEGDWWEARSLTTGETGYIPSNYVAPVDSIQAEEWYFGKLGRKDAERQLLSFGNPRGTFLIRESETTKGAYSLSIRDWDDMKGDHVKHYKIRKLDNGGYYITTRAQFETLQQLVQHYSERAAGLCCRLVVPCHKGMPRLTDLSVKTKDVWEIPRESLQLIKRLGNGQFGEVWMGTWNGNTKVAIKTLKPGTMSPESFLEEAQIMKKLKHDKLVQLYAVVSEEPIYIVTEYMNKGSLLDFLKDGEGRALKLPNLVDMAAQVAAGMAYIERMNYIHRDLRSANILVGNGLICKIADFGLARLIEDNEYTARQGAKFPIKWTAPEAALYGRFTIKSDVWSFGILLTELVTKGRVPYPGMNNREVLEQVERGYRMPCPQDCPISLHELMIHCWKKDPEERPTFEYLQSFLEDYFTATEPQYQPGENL
Chain of Melanocortin receptor 5 (P33032 whole entry): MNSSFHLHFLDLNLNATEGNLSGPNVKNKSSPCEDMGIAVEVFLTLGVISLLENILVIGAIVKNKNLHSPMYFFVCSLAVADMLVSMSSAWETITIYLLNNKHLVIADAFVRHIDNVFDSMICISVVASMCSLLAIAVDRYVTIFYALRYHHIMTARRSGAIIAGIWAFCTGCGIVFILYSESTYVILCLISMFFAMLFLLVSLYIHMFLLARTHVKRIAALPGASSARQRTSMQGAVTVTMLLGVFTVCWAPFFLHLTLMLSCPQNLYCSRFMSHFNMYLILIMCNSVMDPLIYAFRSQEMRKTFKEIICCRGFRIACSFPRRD

By IC50 is commonly meant the midpoint of a concentration-inhibition curve. Turning to `CCCCOc1ccc(OCCCN2CCOCC2)cc1` [PRAMOXINE], the half-maximal inhibitory concentration (IC50) entry (in data set [1]; at Melanocortin receptor 5; in data set [2]; against Interstitial collagenase; in data set [3]; in data set [4]) was “Not Active” throughout. At Cytochrome P450 2A6, the IC50 entry is “Not Active”. The Ki entry on Cytochrome P450 2A6 is “Not Active”.

Regarding `O=C(C1CCCCC1)N1CC(=O)N2CCc3ccccc3C2C1` (stereo not given) [PRAZIQUANTEL], the IC50 entry (in data set [1]; on Melanocortin receptor 5; in data set [2]; at Interstitial collagenase; in data set [3]; in data set [4]) was “Not Active” each time. For the same molecule, the IC50 entry at Cytochrome P450 2A6 was “Not Active”. On Cytochrome P450 2A6, the Ki entry is given as “Not Active”.

Turning to `CCN(CC)CCOC(=O)c1ccc(N)cc1` [PROCAINE], the IC50 result (in data set [1]; against Melanocortin receptor 5; in data set [2]; on Interstitial collagenase; in data set [3]; in data set [4]) was “Not Active” throughout. Further, the IC50 entry against Cytochrome P450 2A6 is listed as “Not Active”. Besides, the Ki entry at Cytochrome P450 2A6 was “Not Active”.

As for `CCCN(CCC)C(=O)C(CCC(=O)O)NC(=O)c1ccccc1` (stereo not given) [PROGLUMIDE], the 50% inhibitory concentration (IC50) result (in data set [1]; on Melanocortin receptor 5; in data set [2]; against Interstitial collagenase; in data set [3]; in data set [4]) was “Not Active” throughout. In addition, on Cytochrome P450 2A6, the IC50 entry is “Not Active”. For the same molecule, the Ki result on Cytochrome P450 2A6 is “Not Active”.

Turning to `NC(=O)c1cnccn1` [PYRAZINAMIDE], the IC50 entry (in data set [1]; on Melanocortin receptor 5; in data set [2]; on Interstitial collagenase; in data set [3]; in data set [4]) was “Not Active” each time. Further, at Cytochrome P450 2A6, the half-inhibitory concentration (IC50) entry is reported as “Not Active”. The Ki entry on Cytochrome P450 2A6 is on record as “Not Active”.

As to `OC(CCN1CCCCC1)(c1ccccc1)C1CCCCC1` (stereo not given) [TRIHEXYPHENIDYL], the half-inhibitory concentration (IC50) entry (in data set [1]; against Melanocortin receptor 5; in data set [2]; on Interstitial collagenase; in data set [3]; in data set [4]) was “Not Active” throughout. Besides, the IC50 entry at Cytochrome P450 2A6 was “Not Active”. For the same molecule, the Ki result at Cytochrome P450 2A6 is listed as “Not Active”.

As to `Cc1cc2cc3c(C)cc(=O)oc3c(C)c2o1` [TRIOXSALEN], the IC50 entry (in data set [1]; at Melanocortin receptor 5; in data set [2]; at Interstitial collagenase; in data set [3]; in data set [4]) was “Not Active” throughout. In addition, the half-inhibitory concentration (IC50) result against Cytochrome P450 2A6 was “Not Active”. The Ki entry at Cytochrome P450 2A6 is reported as “Not Active”.

Regarding `CCCC(CCC)C(=O)O` [VALPROIC ACID], the concentration for half-maximal inhibition (IC50) result (in data set [1]; against Melanocortin receptor 5; in data set [2]; against Interstitial collagenase; in data set [3]; in data set [4]) was “Not Active” in each case. Besides, the 50% inhibitory concentration (IC50) result against Cytochrome P450 2A6 is given as “Not Active”. Moreover, the Ki result on Cytochrome P450 2A6 was “Not Active”.

As for `CCC1=C[C@@H]2CN(C1)Cc1c([nH]c3ccccc13)[C@@](C(=O)OC)(c1cc3c(cc1OC)N(C)[C@H]1[C@@](O)(C(=O)OC)[C@H](OC(C)=O)[C@]4(CC)C=CCN5CC[C@]31[C@@H]54)C2` [VINORELBINE], the IC50 entry (in data set [1]; at Melanocortin receptor 5; in data set [2]; against Interstitial collagenase; in data set [3]; in data set [4]) was “Not Active” in each case. The half-inhibitory concentration (IC50) result against Cytochrome P450 2A6 was “Not Active”. In addition, the Ki entry at Cytochrome P450 2A6 is “Not Active”.

CADMIUM DICHLORIDE: the half-inhibitory concentration (IC50) entry was “Not Active” in data set [1]; “Not Active” on Melanocortin receptor 5; “Not Active” in data set [2]; “Not Active” on Interstitial collagenase; “Not Active” in data set [3]; 137 nM in data set [4] (read-out: IC50). For the same molecule, at Cytochrome P450 2A6, the IC50 entry is given as “Not Active”. Also, the Ki result (in data set [1]; on Melanocortin receptor 5; in data set [2]; on Interstitial collagenase; in data set [3]; at Cytochrome P450 2A6) was “Not Active” in each case.
